Reference: patent publication US20230089557A1, “METHODS OF TREATING DLBCL USING BTK INHIBITORS AND COMBINATIONS THEREOF” (BEIGENE SWITZERLAND GMBH, priority 2020, published 2023)

How the values were obtained:
[1] = system: R/R non-GCB DLBCL; experiment: Four Compound 1 studies pooled (monotherapy and combination), response by BCL2/MYC expression; assay type: in vivo, human; details: for BOR / BOR (responders/patients) / OS / PFS: mono- and combination therapies pooled; for overall survival / progression-free survival / ORR / ORR (responders/patients): two monotherapies and two combination therapies
Method: A total of 121 patients with R/R non-GCB DLBCL were recruited in four Compound 1 treatment studies that were conducted at a similar time period. Two of the four studies were Compound 1 monotherapy (n=79) and two were Compound 1 combined with an anti-CD20 antibody therapy (n=42). Similar inclusion and exclusion criteria and response evaluation criteria were used across all studies. Fifty-six non-GCB patients were further subtyped by gene expression profiling (GEP) using the HTG EdgeSeq DLBCL Cell of Origin Assay. The expression of approximately 90 lymphoma-associated genes from the HTG GEP assay were analyzed by R package limma for correlation with response to Compound 1 treatment. Seventy-seven patient samples were tested by next-generation sequencing (NGS) with a panel of genes. Chi-square test was used to evaluate the correlation between mutations and the objective response rate (ORR).
Monotherapy schedule 1: Compound 1 was administered orally every day at 160 mg twice daily (BID) in 28-day cycles in patients with R/R non-GCB DLBCL
Monotherapy schedule 2: Compound 1 was administered orally every day in each cycle at 160 mg BID in 28-day cycles in patients with R/R non-GCB DLBCL.
Combination therapy schedule 1: Compound 1 was administered orally every day in each cycle at 160 mg BID in 28-day cycles, in combination with obinutuzumab, in patients with R/R non-GCB DLBCL. Obinutuzumab was administered for up to 6 cycles consistent with the U.S. label regimen (100 mg at Day 1 Cycle 1, 1000 mg at Day 8 and Day 15, 900 mg at Day 2 Cycle 1 followed by 1000 mg on day one of cycles 2-6).
Combination therapy schedule 2: Compound 1 was administrated orally every day in each cycle at 160 mg BID in 28-day cycles, in combination with rituximab, in patients with R/R non-GCB DLBCL. And, rituximab was administered at 375 mg/m2 intravenously on Cycle 1 Days 1, 8, 15, 22, and on Day 1 of Cycles 4, 6, 8, 10. Compound 1 was administered at least 30 minutes prior to the initiation of the rituximab infusion.
A total of 121 patients with non-GCB DLBCL were included for response evaluation. 79 patients were subjected to Compound 1 monotherapies (Monotherapy Schedule 1 or 2), and 42 patients were subjected to Compound 1 plus anti-CD20 antibody Combination therapy (Combination therapy schedule 1 or 2).
56 non-GCB patients were further subtyped by gene expression profiling (GEP) using the HTG EdgeSeq DLBCL Cell of Origin Assay. The expression of approximately 90 lymphoma-associated genes from the HTG GEP assay were analyzed by R package limma for correlation with response to zanubrutinib treatment.

[2] = system: Non-GCB DLBCL PDX models; experiment: Compound 1 efficacy (TGI) in non-GCB DLBCL PDX models by EBV status; assay type: in vivo, mice; details: p.o. 7.5 mg/kg BID
From the text: (§1) DLBCL patient-derived xenografted (PDX) models were established in immunodeficient NCG (NOD-Prkdcem26Cd52Il2rgem26Cd22/NjuCrl) mice. These models were classified into GCB and non-GCB subgroups based on immunohistochemistry (IHC) staining using Hans algorithm. Non-GCB DLBCL PDX models were classified into Epstein-Barr virus (EBV) negative and EBV positive subgroups. For efficacy studies, tumor tissues were inoculated subcutaneously into NCG mice. When tumors reached 100˜200 mm^3, mice were randomized into each group with 7˜10 mice/group based on tumor volume. Compound 1 was formulated with 0.5% methyl cellulose as vehicle and treatment was started on the day of randomized grouping. Compound 1 was administrated p.o., 7.5 mg/(kg body weight), BID. Tumor volumes were measured twice weekly in two dimensions using a caliper, and the volume were expressed in mm^3 using the formula:
(§2) V=0.5(a×b^2) where a and b are the long and short diameters of the tumor, respectively.
(§3) Tumor growth inhibition (TGI) was calculated using the following formula:
(§4) % TGI=100×[1−(treatmentvt−treatmentv0)/(vehiclevt−Vehiclev0)]
(§5) Treatmentvt=tumor volume of treatment group at time t.
treatmentv0=tumor volume of treatment group at time of treatment started. […]
Average TGI of each model was used and represented as a dot point in the figure. P value was calculated using two tails t test to compare difference between groups.

[3] = system: DLBCL patient-derived xenografted (PDX) models; experiment: Compound 1 efficacy (TGI) in DLBCL PDX models, GCB vs non-GCB; assay type: in vivo, mice; details: p.o. 7.5 mg/kg BID
From the text: as §1, with “algorithm (Hans, C. P., et al., Blood, 2004. 103 (1): p. 275-282).” for “algorithm. Non-GCB DLBCL PDX models were classified into Epstein-Barr virus (EBV) negative and EBV positive subgroups.”, “100-200” for “100˜200”, “7-10” for “7˜10”
as §2, §3, §4, §5
treatmentv0=tumor volume of treatment group at time of treatment started.
Vehiclevt=tumor volume of vehicle group at time t.
Vehiclev0=tumor volume of vehicle group at time of treatment started.
P value was calculated using two tails t test.

[4] = MYC and BCL2 double expressor (DE) patients

With `C=CC(=O)N1CCC([C@@H]2CCNc3c(C(N)=O)c(-c4ccc(Oc5ccccc5)cc4)nn32)CC1` [Compound 1, (S)-7-(1-acryloylpiperidin-4-yl)-2-(4-phenoxyphenyl)-4,5,6,7-tetra-hydropyrazolo[1,5-a]pyrimidine-3-carboxamide] the BOR ([1]; BCL2-high patients) was 57%, the “BOR (responders/patients)” value ([1]; BCL2-high patients) was 16/28 and the OS ([1]; BCL2-high patients) was 10 m. The PFS ([1]; BCL2-high patients) was 5.3 m, the BOR ([1]; BCL2-low patients) was 21% and the “BOR (responders/patients)” value ([1]; BCL2-low patients) was 6/28. It also gave an OS ([1]; BCL2-low patients) of 6 m, a PFS ([1]; BCL2-low patients) of 2.8 m and an overall survival ([1]; DE patients) of 10 months. The progression-free survival ([1]; DE patients) was 5.4 months, the ORR [1, 4] was 61% and the “ORR (responders/patients)” value [1, 4] was 11/18. The BOR ([1]; MYC-high patients) was 46%, the “BOR (responders/patients)” value ([1]; MYC-high patients) was 13/28 and the OS ([1]; MYC-high patients) was 10 m. For the same compound, the PFS ([1]; MYC-high patients) was 5.4 m, the BOR ([1]; MYC-low patients) was 32% and the “BOR (responders/patients)” value ([1]; MYC-low patients) was 9/28. For the same compound, the OS ([1]; MYC-low patients) was 7 m, the PFS ([1]; MYC-low patients) was 2.9 m and the ORR ([1]; non-DE patients) was 29%. For the same compound, the “ORR (responders/patients)” value ([1]; non-DE patients) was 11/38, the overall survival ([1]; non-DE patients) was 7 months and the progression-free survival ([1]; non-DE patients) was 3.6 months. For the same compound, the “TGI (mean±SD)” value ([2]; EBV negative non-GCB DLBCL models) was 78.00±43.41%, the “TGI (mean±SD)” value ([2]; EBV positive non-GCB DLBCL models) was 33.25±22.41% and the “TGI (mean±SD)” value ([3]; GCB subtype PDX models) was 25.5±11.96%. For the same compound, the “TGI (mean±SD)” value ([3]; non-GCB DLBCL PDX models) was 63.60±42.92%.
